Article PMC10812557, “Progressive Design of a Ranatuerin-2 Peptide from Amolops wuyiensis: Enhancement of Bioactivity and In Vivo Efficacy” (Antibiotics, 2023)
Where two headings read alike, the source gives them in different places. Bridge positions count the residues as written; N and C are the ends. Peptide text beside a SMILES is read from it.

Columns and labels:
E. faecium (NTCC 12697) [1] = test: microbe, parasite or virus in culture; format: cell-based; conditions: NTCC 12697, 18 h
From the text: (§1) The MIC and MBC assays were used to assess the inhibitory activities of all 5 analogues of R2AW on the growth of planktonic microorganisms. The MIC is the lowest concentration that prevents the viable growth of bacteria. The MBC is the lowest concentration that results in bacterial death. Six microorganisms were used to detect the antimicrobial activity of peptides, including Gram-positive bacteria S. aureus (NCTC 10788), MRSA (NCTC 12493), Enterococcus faecalis (E. faecalis) (NCTC 12697), Gram-negative bacteria E. coli […], Klebsiella pneumoniae (K. pneumoniae) (ATCC 43816), and Pseudomonas aeruginosa (P. aeruginosa) (ATCC 9027). According to the assay described previously, the microorganisms were inoculated at 37 °C overnight and diluted to 5 × 10^5 CFU/mL after reaching the logarithmic growth period. The peptide stock solution at the concentration of 512 × 10^2 μM was prepared and diluted to 100 μM by a 2-fold dilution. One μL of each concentration of peptide solution was incubated with 99 μL of bacterial subculture in the 96-well plate for 18 h at 37 °C. The absorbance was determined at a wavelength of 550 nm using a Synergy HT plate reader (Bio Tek, Washington, DC, USA). […] As for those wells that were clearly visible, 20 μL of the solution was dropped onto the Mueller Hinton agar (MHA) dish and then incubated at 37 °C overnight. The lowest concentration with no colony growth was determined as the MBC.

MRSA (NCTC 12493) [2] = test: microbe, parasite or virus in culture; format: cell-based; conditions: MRSA (NCTC 12493)
From the text: as §1

S. aureus (NCTC 10788) [3] = test: microbe, parasite or virus in culture; format: cell-based; conditions: NCTC 10788, 18 h
From the text: as §1

E. coli (ATCC 8739) [4] = format: cell-based; conditions: ATCC 8739, 18 h
From the text: as §1

[5] = tested on: K. pneumoniae (ATCC 43816); format: cell-based; conditions: ATCC 43816, 18 h
From the text: as §1

[6] = tested on: P. aeruginosa (ATCC 9027); format: cell-based; conditions: ATCC 9027, 18 h
From the text: as §1

S. aureus (NCTC 10788) [7] = format: cell-based, Staphylococcus aureus
Experimental: (§2) As a previous study described in detail, the ability of R2AW and its analogues to inhibit and eradicate the formation of biofilm was investigated. The MBIC is the lowest concentration which inhibits the formation of biofilm. The MBEC is the minimum concentration that eradicates biofilm. Six bacterial strains were used, as described above. Briefly, the bacteria were cultured and then diluted to 5 × 10^5 CFU/mL. In MBIC assays, 1 μL of each concentration of R2AW and its analogues (ranging from 512 × 10^2 μM to 100 μM) was mixed with 99 μL of diluted bacterial suspension in a 96-well plate for 16-20 h at 37 °C. As for MBEC assays, 100 μL of cultured bacteria were seeded in a 96-well plate and incubated on the shaking incubator at 37 °C overnight for biofilm formation. Subsequently, each well was rinsed twice with 100 μL sterile PBS to remove planktonic cells, and then replaced with 100 μL of each concentration (ranging from 512 μM to 1 μM) of peptides. After 24 h incubation, the biofilm was washed twice with 100 μL of PBS and fixed with methanol. Next, the same volume of 0.1% crystal violet solution (Sigma-Aldrich, Gillingham, UK) was added to each well to stain the biofilm. After that, 100 μL of 30% of acetic acid (Sigma-Aldrich, Gillingham, UK) was transferred to each well for dissolution. The solutions were transferred into a new 96-well plate and the absorbances of wells was monitored using a Synergy HT plate reader set to 595 nm.

E. coli (ATCC 8739) [8] = format: cell-based, Escherichia coli
Experimental: as §2

MRSA (NCTC 12493) [9] = format: cell-based, methicillin-resistant Staphylococcus aureus
Experimental: as §2

[10] = tested on: K. pneumoniae (ATCC 43816); format: cell-based, Klebsiella pneumoniae
Experimental: as §2

E. faecium (NTCC 12697) [11] = format: cell-based
Experimental: as §2

[12] = tested on: P. aeruginosa (ATCC 9027); format: cell-based, Pseudomonas aeruginosa
Experimental: as §2

H838 = format: cell-based, human; conditions: 24 h
Experimental: (§3) Five human cancer cell lines of non-small-cell lung cancer H838, human prostate carcinoma PC-3, human neuronal glioblastoma U251MG, human breast cancer cell MCF-7, and colorectal carcinoma HCT116 were used to detect the antiproliferative abilities of R2AW and its five analogues. According to the procedures in a previous article, cells (8000 cells/well) were seeded into the 96-well tissue culture plates and incubated at 37 °C with 5% CO2 overnight. The solutions of R2AW and its analogues at concentrations of 10^−4 M to 10^−9 M were prepared in the serum-free medium. Next, cells in each well were treated with 100 μL of each peptide solution for 24 h. Subsequently, 10 μL of 5 mg/mL MTT (3-(4, 5-Dimethylthiazol-2-yl-)-2, 5-Diphehyltetrazolium Bromide) was added to each well followed by 37 °C incubation for 2 h. After that, the liquid in each well was removed and 100 μL of DMSO was added to dissolve the purple formazan. The plate was placed on a shaking incubator for 10 min, and the absorbance was detected at 550 nm using a Synergy HT plate reader (Biotech, Minneapolis, MN, USA).

HCT116 = format: cell-based, human; conditions: 24 h
Experimental: as §3

MCF-7 = format: cell-based, human; conditions: 24 h
Experimental: as §3

PC-3 = format: cell-based, human; conditions: 24 h
Experimental: as §3

U251MG = format: cell-based, human; conditions: 24 h
Experimental: as §3

[13] = tested on: five human cancer cell lines; format: cell-based; conditions: 24 h
Experimental: as §3

Haemolysis assay = format: cell-based, horse; conditions: horse erythrocytes (washed red blood cell suspension); horse erythrocytes, up to 256 μM
Experimental: The haemolytic activity of R2AW and its five designed analogues on mammalian erythrocytes was evaluated using 2% defibrinated horse blood (TCS Biosciences Ltd., Buckingham, UK) as per a previous report. Two mL of fresh horse blood was transferred into a 50 mL tube and then washed with sterilised PBS. The supernatant was removed after centrifuging (930× g, 5 min). The centrifugation procedure was repeated until the supernatant was clear. After washing, the red blood cell pellet was diluted with PBS to achieve a 4% (v/v) erythrocyte suspension. The concentrations of R2AW and its designed derivatives were prepared from 512 μM to 2 μM by two-fold dilution in sterilised PBS. One hundred µL of red blood cell suspension was added into a 1.5 mL tube treated with the same volume of each concentration of peptide and incubated at 37 °C for 2 h. The red blood cell suspensions treated with 0.2% Triton X-100 and with PBS were regarded as positive control and negative control. After centrifugation at 930× g for 10 min, 100 μL of suspension was transferred to a 96-well plate, and the absorbance was obtained by use of a Synergy HT plate reader. The degree of haemolysis could be calculated using the following formula: Haemolysis = (absorbance (experimental groups) − absorbance (negative control))/(absorbance (positive control) − absorbance (negative control)) × 100%.

| SMILES | MBC (E. faecium (NTCC 12697) [1]) [µg/mL] | MBC (MRSA (NCTC 12493) [2]) [µg/mL] | MIC (MRSA (NCTC 12493) [2]) [µg/mL] | MBC (S. aureus (NCTC 10788) [3]) [µg/mL] | MIC (S. aureus (NCTC 10788) [3]) [µM] | MBC (E. coli (ATCC 8739) [4]) [µg/mL] | MIC (E. coli (ATCC 8739) [4]) [µM] | MBC [5] [µg/mL] | MIC [5] [µg/mL] | MBC [6] [µg/mL] | MIC [6] [µg/mL] | MBEC (S. aureus (NCTC 10788) [7]) [µM] | MBIC (S. aureus (NCTC 10788) [7]) [µM] | MBEC (E. coli (ATCC 8739) [8]) [µM] | MBIC (E. coli (ATCC 8739) [8]) [µM] | MBEC [10] | MBIC [10] | MBEC (E. faecium (NTCC 12697) [11]) [µM] | MBIC (E. faecium (NTCC 12697) [11]) [µM] | MBEC [12] [µM] | further results |
| --- | --- | --- | --- | --- | --- | --- | --- | --- | --- | --- | --- | --- | --- | --- | --- | --- | --- | --- | --- | --- | --- |
| CC[C@H](C)[C@@H]1NC(=O)[C@H](CCCCN)NC(=O)[C@@H](NC(=O)[C@H](CCCCN)NC(=O)[C@H](CC(C)C)NC(=O)[C@H](CCCCN)NC(=O)[C@H](CC(=O)O)NC(=O)[C@H](CC(C)C)NC(=O)[C@H](CC(C)C)NC(=O)[C@@H](NC(=O)[C@H](C)NC(=O)[C@H](C)NC(=O)[C@@H](NC(=O)[C@H](CC(N)=O)NC(=O)[C@H](CCCCN)NC(=O)[C@H](C)NC(=O)[C@@H](NC(=O)[C@H](CC(N)=O)NC(=O)[C@H](CCCCN)NC(=O)[C@H](C)NC(=O)[C@@H](NC(=O)[C@H](CC(=O)O)NC(=O)[C@H](CCSC)NC(=O)[C@H](Cc2ccccc2)NC(=O)CN)[C@@H](C)O)C(C)C)C(C)C)[C@@H](C)O)CSSC[C@@H](C(=O)O)NC(=O)CNC(=O)CNC(=O)[C@H]([C@@H](C)O)NC1=O [R2AW] (H-GFMDTAKNVAKNVAATLLDKLKCKITGGC-OH; disulfide 23-29) | 771 | 1541 | 770 | 193 | 32 | 193 | 32 | 771 | 385 | 1541 | 385 | > 512 | 128 | 512 | 128 | 512/>512 µM | 512/>512 µM | >512 | >512 | >512 | MIC (E. faecium (NTCC 12697) [1]): 770 µg/mL; MBEC (MRSA (NCTC 12493) [9]; NCTC 12493): > 512 µM; MBIC (MRSA (NCTC 12493) [9]; NCTC 12493): 256 µM; MBIC [12]: >512 µM; IC50 (H838): 10.8 µM; IC50 (HCT116): 10.8 µM; IC50 (MCF-7): 33.2 µM; IC50 (PC-3): 5.09 µM; IC50 (U251MG): 30.8 µM; IC50 [13]: 5.09 to 33.2 µM |
| CC[C@H](C)[C@H](NC(=O)[C@H](CCCCN)NC(=O)[C@H](CO)NC(=O)[C@H](CCCCN)NC(=O)[C@H](CC(C)C)NC(=O)[C@H](CCCCN)NC(=O)[C@H](CC(=O)O)NC(=O)[C@H](CC(C)C)NC(=O)[C@H](CC(C)C)NC(=O)[C@@H](NC(=O)[C@H](C)NC(=O)[C@H](C)NC(=O)[C@@H](NC(=O)[C@H](CC(N)=O)NC(=O)[C@H](CCCCN)NC(=O)[C@H](C)NC(=O)[C@@H](NC(=O)[C@H](CC(N)=O)NC(=O)[C@H](CCCCN)NC(=O)[C@H](C)NC(=O)[C@@H](NC(=O)[C@H](CC(=O)O)NC(=O)[C@H](CCSC)NC(=O)[C@H](Cc1ccccc1)NC(=O)CN)[C@@H](C)O)C(C)C)C(C)C)[C@@H](C)O)C(=O)N[C@H](C(=O)NCC(=O)NCC(=O)N[C@@H](CO)C(=O)O)[C@@H](C)O [[Ser^23,29]R2AW] (H-GFMDTAKNVAKNVAATLLDKLKSKITGGS-OH) | 1526 | 1526 | 763 | 191 | 64 | 381 | 64 | 1526 | 763 | > 1526 | 1526 | > 512 | 128 | 512 | 128 | >512 µM | >512 µM | >512 | >512 | >512 | MBEC (MRSA (NCTC 12493) [9]; MRSA (NCTC 12493)): > 512 µM; MBIC (MRSA (NCTC 12493) [9]; MRSA (NCTC 12493)): 256 µM; MBIC [12]: >512 µM; IC50 (H838): 19.3 µM; IC50 (HCT116): 31.6 µM; IC50 (MCF-7): 62.7 µM; IC50 (PC-3): 17.4 µM; IC50 (U251MG): 37.3 µM; hemolysis at 2 h (Haemolysis assay): ~10% |
